Patent US20250352611A1, “METHODS FOR TREATING CATARACTS USING POLYPEPTIDES” (REJUKON BIOPHARM INC., priority 2022, published 2025)

Assays:
[1] = system: lens of cataract patients; assay: Immersion of intact cataract lens, opacity by daily photographs; set-up: species or system human; details: RJK001 0.5 mM in vehicle, 6 days, dark, room temperature
Procedure: Next, we directly immersed the cataract lens removed during the operation in the buffer solution of the control group and the RJK001 protein solution of the experimental group. During the immersion for up to 6 days, the lens of the patient was photographed and recorded every day. More detailed description of the method is: Collect two intact eye lenses from cataract patients. To each tube was added 400 μL solution of vehicle (0.1% NaN3, 0.3% triton X-100, containing 1:1000 protease inhibitor cocktail) or RJK001 (0.5 mM) in vehicle which covered the lens tissue completely. Lens tissue was incubated in these solutions for 6 days in the dark at room temperature. After sealing the 48-well plate with parafilm to avoid liquid evaporation. Observe the state of the lens under the stereoscope every day and take pictures to record.

G3BP1-GFP protein = biological target: T1, G3BP1-GFP protein (Mus musculus, UniProt P97855); assay: G3BP1-GFP phase separated droplet dissolution, confocal laser microscope; format: biochemical; details: 60 uM polypeptide, 20 uM G3BP1-GFP, pH7.5, 40s after addition
T1 construct: Genes of full-length mouse G3BP1, G3BP1-eGFP; thrombin protease cleavage site (C); His6 (C); made in house; host or cells: Escherichia coli rosetta (DE3)
Procedure: The prokaryotic expressed and purified G3BP1-GFP protein (pH7.5, 20 uM G3BP1-GFP) was induced to form phase separated droplets in vitro. Polypeptides Champ-E (RJK001), Champ-D (RJK002), Champ-K (RJK012) and Champ-Q (RJK005, […], SEQ ID NO: 34) (each of 60 uM) were added dropwise to the G3BP1-GFP droplets. The observation was performed continuously through a confocal laser microscope.
For G3BP1(FL)-eGFP, purified G3BP1(FL)-eGFP, Champ-E and its variants were changed were diluted to droplet buffer (50 mM Tris, pH 7.5, 150 mM NaCl) using SpinDesalt Column (smart). G3BP1(FL)-eGFP proteins were diluted to indicated concentrations and supplemented with PEG8000 with 1.25% final concentration for 10 min to induce phase separation as reported.

G3BP1 = biological target: T2, G3BP1 (Mus musculus, UniProt P97855); assay: G3BP1 turbidity assay (OD395 nm); format: biochemical; details: G3BP1 30 μM, ratio range 0.75 to 25, room temperature, 10 minutes
T2 construct: Genes of full-length mouse G3BP1, G3BP1-eGFP; thrombin protease cleavage site (C); His6 (C); made in house; host or cells: Escherichia coli rosetta (DE3)
Procedure: The turbidity of G3BP1 (30 μM) in the presence of various concentrations of Champ-E, Champ-D, Champ-K, or Champ-Q was measured at a wavelength of 395 nm. Briefly, G3BP1 protein ([…]) and polypeptides Champ-E (RJK001), Champ-D (RJK002), Champ-K (RJK012) and Champ-Q (RJK005) were mixed well in a ratio range of 0.75 to 25 at room temperature for 10 minutes prior to turbidity assays. Absorbance at 395 nm (OD395 nm) was monitored at room temperature using Nanodrop ONE (Thermo Fisher Scientific, Inc.). […] The turbidity level reflects the degree of phase separation.
Briefly, the G3BP1 protein and the above-mentioned peptides were mixed at room temperature for 10 minutes prior to turbidity assays. 30 μM G3BP1 and peptide were mixed well in a ratio range of 0.75 to 25 before test. Absorbance at 395 nm (OD395 nm) was monitored at room temperature using Nanodrop ONE (Thermo Fisher Scientific, Inc.).
We followed the Turbidity Assays experiment as previously reported. Briefly, G3BP1 turbidity analysis were at room temperature and γD-crystallin protein was at 4° C. Proteins and Champ-E(RJK001), Champ-K, Champ-D or mutants are mixed at room temperature for 10 minutes prior to turbidity assays. 20 μM G3BP1 and 50 mg/ml(2.5 mM) γD-crystallin and peptide were mixed well in a ratio range of 0.75 to 25 before test. Absorbance at 395 nm (OD395 nm) was monitored at room temperature using Nanodrop ONE (Thermo Fisher Scientific, Inc.).

[2] = system: crystallin protein aggregates from human cataract patients; assay: Re-dissolution of crystallin aggregates from patients with different degrees of cataract (ThT fluorescence); details: LOCS II grades e.g. C1N2P0
Description: DM: diabetes mellitus. lens opacity classification: C: cortex; N: nucleus; P: the posterior lens capsule.
Human lenses used in this study were obtained from unidentified patients undergoing extracapsular cataract surgery. The material had been classified as non-human discarded material. Preoperative clinical exam was used to classify the cataract as mixed cortical and nuclear using LOCS II four-point grading system. LOCS II four-point grading system is also commonly used in clinical settings. (Chylack LT Jr, Leske MC, McCarthy D, Khu P, Kashiwagi T, Sperduto R. Lens opacities classification system II (LOCS II). Arch Ophthalmol. 1989 July; 107(7):991-7. doi: 10.1001/archopht.1989.01070020053028. PMID: 2751471). We tested the crystallin concentrates of patients with different degrees of cataract one by one. […]

[3] = system: crystallin aggregation from cataract patients; assay: Dissolution of crystallin aggregation in lens lysates from cataract patients; set-up: species or system human
Procedure: 30-50 ml lens lysates after phacoemulsification was collected from cataract patients with different disease progressions. Lanosterol was used as a benchmark medicament (see, Zhao, Ling, et al. “Lanosterol reverses protein aggregation in cataracts.” Nature 523. 7562 (2015): 607-611). […] Moreover, the concentration of the polypeptides provided herein (e.g., RJK001) was as less as 1/100 of the concentration of Lanosterol required to achieve the same dissolving effect.
30-50 ml Phacoemulsification of eye lens was collected from cataract patients with different disease progression. Let Phacoemulsification pass the 3KD protein concentration tube, and centrifuge at 4000 g for 20 minutes. centrifuge at 14000 g for 5 minutes after repeating the previous step to get the concentrate. Concentrate phacoemulsification to 200-300 ul every lens. Add 8 ul phacoemulsification concentrate in the following groups: 1, 8 ul crystalline concentrate; 2, 8 ul 1 mM lanosterol; 3, 8 ul 1 mM short peptide RJK001; 4, 8 ul protein solubilization buffer. Use a 20 ul pipette tip to mix them well, then stand still at RT for 20 min.

With “TEPQEESEEEVEEPEERQQTPEVVPDDSGTFYDQTVSNDLE [RJK001, polypeptide with hydrophilic and hydrophobic segment, expressed in E. coli]” the “opacity of the lens” value [1] was “reduced opacity of the lens of cataract patients”, the “dissolution of G3BP1-GFP phase separated droplets” value (G3BP1-GFP protein) was “significantly dissolved the phase separated droplets” and the “turbidity of G3BP1 (OD395 nm)” value (G3BP1) was “reduced the turbidity in a concentration dependent manner”. For the same sequence, the “depolymerization effect on crystallin concentrates of patients with different degrees of cataract” value [2] was “good depolymerization effects”, the “dissolving crystallin aggregation in lens lysates” value ([3]; lens lysates after phacoemulsification, RT 20 min) was “could effectively dissolve the crystallin aggregation from cataract patients” and the “concentration relative to the concentration of Lanosterol required to achieve the same dissolving effect” value ([3]; lens lysates from cataract patients, Lanosterol as benchmark) was 1/100.
